{
  "source": "patent US20110091472A1",
  "about": "“COMPOSITIONS FOR TREATING PSORIASIS” (Novartis Vaccines and Diagnostic, Inc., priority 1999, published 2011)",
  "test_system": "lesional psoriatic skin grafted onto SCID mice",
  "assay": "SCID mouse psoriatic skin graft model, methotrexate alone or in combination with low dose 5D12",
  "type": "in vivo",
  "conditions": "methotrexate 0.1 to 0.4 mg/kg increasing regimen in combination with the isotype control antibody",
  "description": "This experiment was conducted, using the mouse model described in Example 1, to quantitate the anti-psoriatic effects of low doses of anti-CD40 antibody. The low-dose treatment with antibody 5D12 consisted of intraperitoneal injections of mice with 0.5 mg/kg 5D12 every other day for two weeks. High-dose treatment consisted of intraperitoneal injections of mice with 5 mg/kg 5D12 every other day for two weeks. […] The treatment control group consisted of mice injected intraperitoneally with isotype control antibody for two weeks. Four weeks after the termination of the treatments, the grafts were harvested and either fixed in formaldehyde or snap-frozen. Fixed material was used for morphological analyses based on H+E staining, and the snap-frozen material used for additional immunohistochemical analyses.\nThe effects of methotrexate treatment alone or in combination with low dose (0.5 mg/kg) 5D12 treatment were evaluated. An increasing dosing regimen was chosen, starting with 0.1 mg/kg and increasing the dose by 0.05 mg/kg every week until 0.4 mg/kg was reached. The scheme was combined with the application of the isotype control antibody or with the low dose 5D12 treatment schedule. The isotype control treatment served as a negative control and the low dose 5D12 treatment as a positive control.",
  "data": [
    {"smiles": "CN(Cc1cnc2nc(N)nc(N)c2n1)c1ccc(C(=O)N[C@@H](CCC(=O)O)C(=O)O)cc1", "note": "[Methotrexate]", "values": [
      {"measurement": "effects on epidermal thickness (in words)", "value": "only minimal effects on epidermal thickness"}
    ]}
  ]
}
